Laboratory results: US4380535A, “Enkephalin degrading enzyme inhibitors” (priority 1981, dated 1983)
Structures can show the parent of a compound that is named as a salt.

What was measured:
[1] = test system: enkephalin-degrading aminopeptidase; test: inhibition of brain enzyme degradation of 3H-Leu-enkephalin (solubilized rat brain membrane preparation, TLC); format: biochemical; settings: 1.0×10^-3 M inhibitor, 5.0×10^-4 M 3H-Leu-enkephalin, 37° C., 1 hour; control 52%
Procedure: The ability of the compounds of the invention to inhibit the brain enzyme degradation of enkephalins was studied in the following test procedure.
Brain enzymes from rats are used in the procedure and for this purpose solubilized rat brain membrane preparation, prepared as follows, is used:
Brains from young male Charles River Co. rats were homogenized in 30 volumes 50 mM Tris pH 7.7 with a Polytron (Brinkmann). The homogenate was centrifuged at 50,000 x g for 15 min. The supernatant was discarded the pellet resuspended in 50 mM Tris pH 7.7 and centrifuged at 50,000 x g for 15 min. The resultant pellet was resuspended, centrifuged and washed 3 additional times as described above. The membrane pellet was solubilized by resuspension in 15 volumes 50 mM Tris pH 7.7, 1% Triton X-100 and incubation at 37° C. for 45 min. […]
This preparation is incubated at 37° C. for 1 hour in the presence of 5.0×10^-4 M ^3 H-Leu-enkephalin in 50 mM tris buffer and 1.0×10^-3 M of the inhibitor to be tested. […] Markers of Leu-enkephalin (LE), tyrosinge (T) and tyrosine-glycine-glucine (TGG) are run with all samples and the relevant areas are scraped into scintillation vials and counted. […]
When N-Me-Tyr-D-Cys-Gly-N-MePhe-Thz-NH2 is tested in this procedure, the percentage of hydrolysis poructs (analyzed by TLC of tagged Leu-enkephalin) is as follows: […]

opiate receptor = opiate receptor affinity, 3H-naloxone displacement in rat brain homogenate (modified Chang); format: binding; settings: 3H-naloxone displacement (ID50) relative to morphine, with NaCl
[2] = test system: phenylbenozquinone-induced writhing; test: phenylbenzoquinone-induced writhing test (modified Siegmund); format: in vivo; settings: mice, subcutaneous administration, at 15 minutes; limits (10.9-29.7)
Procedure: Biol. Med., 95, 729-731 (1957). According to this procedure, test compound is administered at various doses to ten mice per dose level. The animals then receive intraperitoneal injection with 0.25 ml of the writhing agonist (a 0.02% solution of benzoquinone) 5 min before the beginning of a pre-selected, 10 min observation period. Typical observation periods include 10 to 20, 25 to 35, 40 to 50 and 55 to 65 min following administration of the test compound. The mice are observed during the observation period for the presence of an all-or-none writhing reaction.
If the compound is active, its dose response and ED50 value are determined according to the method of D. J. Finney (Statistical Methods in Biological Assay, Griffin and Co., London, 1964).

## CN[C@@H](Cc1ccc(O)cc1)C(=O)N[C@H](CS)C(=O)NCC(=O)N(C)[C@@H](Cc1ccccc1)C(=O)N1CSC[C@H]1C(N)=O [N-Me-Tyr-D-Cys-Gly-N-MePhe-Thz-NH2, N^α -Methyl-L-tyrosyl-D-cysteinyl-glycyl-N-methyl-L-phenylalanyl-L-thiazolidine-4-carboxamide, acetate salt]
[1]
  percentage of hydrolysis products: Tyr: 14%
Opiate receptor
  relative displacement potency as compared to morphine (1): 2.6
[2]
  ED50: 18 mg/kg
